Measured values: patent publication EP1137645B1, “ALPHA-METHYLBENZYL-CONTAINING THIOUREA INHIBITORS OF HERPES VIRUSES CONTAINING A […] GROUP” (Wyeth, priority 1998, dated 2000)
≈ marks a conversion by molar mass, not a printed value. Like-named read-outs stand apart in the source and are kept apart here.

Key:
[1] = test system: HSV- I; experiment: HSV antiviral (ELISA) assay; type: cell-based; conditions: read-out: IC50 (ug/ml) HSV
How it was run: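 Vero cells in DMEM with 2% FBS treated with compound 30 min before HSV-1 infection (MOI 0.006), then incubated ~24 h at 37°C. Viral replication measured by ELISA against glycoprotein D with β-galactosidase-linked secondary and fluorogenic substrate (ex 365/em 450 nm); IC50 relative to untreated fluorescence.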

[2] = test system: VZV strain Ellen; experiment: VZV antiviral (ELISA) assay; type: cell-based
How it was run: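 HFF cells infected with VZV Ellen at multiplicity below 0.1 overnight, then mixed infected/uninfected cells seeded with compound in DMEM/2% FBS and incubated three days at 37°C, 5% CO2.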

[3] = test system: HCMV recombinant mutant virus whose genome contains the prokaryotic beta-glucuronidase gene; experiment: microbe, parasite or virus in culture; type: cell-based, human cytomegalovirus; conditions: Human betaherpesvirus 5, Fibroblast
How it was run: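 Human foreskin fibroblasts infected with HCMV recombinant carrying beta-glucuronidase under a viral promoter (e.g. RV145) in presence of compound. At 96 h post-infection, lysates assayed for beta-glucuronidase by colorimetric or fluorogenic substrate as replication readout; IC50 estimated from varying compound amounts.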

[4] = Human alphaherpesvirus 3, HFF, read-out: % inhibition 10 ug/ml VZV
[5] = Human alphaherpesvirus 3, HFF, read-out: IC50 (ug/ml) VZV, VZV strain Ellen, HFF cells, ELISA
[6] = read-out: IC50 ug/ml HCMV, HCMV, human foreskin fibroblasts
[7] = Human alphaherpesvirus 3, HFF, read-out: IC50 (ug/ml) VZV
[8] = Human alphaherpesvirus 3, VZV strain Ellen, HFF cells, ELISA, read-out: IC50 (ug/ml) VZV
[9] = Human alphaherpesvirus 3, read-out: % inhibition 10 ug/ml VZV, 10 ug/ml, VZV strain Ellen, HFF cells, ELISA

| SMILES | IC50 ([1]; Vero) | inhibition at 10 µg/mL [2, 4] | IC50 [2, 5] | IC50 [3, 6] | IC50 [2, 7] | IC50 ([1]; HSV- I, Vero cells, ELISA) | IC50 [2, 8] | IC50 ([3]; read-out: IC50 ug/ml HCMV) | inhibition at 10 µg/mL [2, 9] |
| --- | --- | --- | --- | --- | --- | --- | --- | --- | --- |
| COc1cc(OC)c(NC(=S)Nc2ccc(NC(=O)c3ccccc3-c3ccccc3)cc2)cc1Cl [Example 182, Biphenyl-2-carboxylic acid {4-[3-(5-chloro-2,4-dimethoxy-phenyl)-thioureido]-phenyl}-amide] | 10 µg/mL (≈ 19.3 µM) | 32% | > 10 µg/mL | 10 µg/mL (≈ 19.3 µM) |  |  |  |  |  |
| Nc1ccc(Cl)cc1NC(=S)Nc1ccc(NC(=O)c2ccccc2F)cc1 [Example 437, N-{4-[3-(2-Amino-5-chloro-phenyl)-thioureido]-phenyl}-2-fluoro-benzamide] | 0.05 µg/mL (≈ 0.121 µM) | 0% |  | > 10 µg/mL | 8 µg/mL (≈ 19.3 µM) |  |  |  |  |
| COc1cc(OC)c(NC(=S)Nc2ccc(NC(=O)c3ccccc3SC)cc2)cc1Cl [Example 194, N-{4-[3-(5-Chloro-2,4-dimethoxy-phenyl)-thioureido]-phenyl}-2-methyl-sulfanyl-benzamide] |  | 45% |  | > 10 µg/mL | > 10 µg/mL | 1.5 µg/mL (≈ 3.07 µM) |  |  |  |
| CN1CCC(N(C)c2ccc(NC(=S)Nc3ccc(NC(=O)c4c(F)cccc4F)cc3)cc2Cl)C1 (stereo not drawn) [Example 349, N-[4-(3-{3-Chloro-4-[methyl-(1-methyl-pyrrolidin-3-yl)-amino]-phenyl}-thioureido)-phenyl]-2,6-difluoro-benzamide] |  | 110% |  | 1.2 µg/mL (≈ 2.26 µM) | 4 µg/mL (≈ 7.55 µM) | 5 µg/mL (≈ 9.43 µM) |  |  |  |
| CN(c1ccc(NC(=S)Nc2ccc(NC(=O)c3c(F)cccc3F)cc2)cc1Cl)C1CCCCC1 [Example 248, N-(4-{3-[3-Chloro-4-(cyclohexyl-methyl-amino)-phenyl]-thioureido}-phenyl)-2,6-difluoro-benzamide] |  | 96% |  | 2 µg/mL (≈ 3.78 µM) | 2 µg/mL (≈ 3.78 µM) | > 10 µg/mL |  |  |  |
| COc1cc(C)c(Cl)cc1NC(=S)Nc1ccc(NC(=O)c2ccccc2F)cc1 [Example 849, N-{4-[3-(5-Chloro-2-methoxy-4-methyl-phenyl)-thioureido]-phenyl}-2-fluoro-benzamide] |  | 38% |  | > 10 µg/mL | > 10 µg/mL | > 10 µg/mL |  |  |  |
| COc1ccccc1C(C)NC(=S)Nc1ccc(NC(=O)c2ccccc2F)cc1 (stereo not drawn) [Example 788, 2-Fluoro-N-(4-{3-[1-(2-methoxy-phenyl)-ethyl]-thioureido}-phenyl)-benzamide] | > 10 µg/mL |  | > 7.5 µg/mL | 1.8 µg/mL (≈ 4.25 µM) |  |  |  |  |  |
| CC(NC(=S)Nc1ccc(NC(=O)c2cc3ccccc3o2)cc1)c1ccc(F)cc1 (stereo not drawn) [Example 980, Benzofuran-2-carboxylic acid (4-{3-[1-(4-fluoro-phenyl)-ethyl]-thioureido}-phenyl)-amide] |  |  |  | > 10 µg/mL | 0.15 µg/mL (≈ 0.346 µM) | > 10 µg/mL |  |  |  |
| CC(NC(=S)Nc1ccc(NC(=O)c2ccccc2F)cc1)c1ccccc1F (stereo not drawn) [Example 778, 2-Fluoro-N-(4-{3-[1-(2-fluoro-phenyl)-ethyl]-thioureido}-phenyl)-benzamide] |  |  |  |  |  | > 10 µg/mL | 3 µg/mL (≈ 7.29 µM) | 0.8 µg/mL (≈ 1.94 µM) |  |
| C[C@@H](NC(=S)Nc1ccc(NC(=O)c2ccccc2F)cc1)c1ccccc1 [Example 1016, 2-Fluoro-N-{4-[3-((1R)-1-phenyl-ethyl)-thioureido]-phenyl}-benzamide] |  |  |  |  |  | > 10 µg/mL | > 7.5 µg/mL | 6.4 µg/mL (≈ 16.3 µM) |  |
| COc1ccc(NC(=S)Nc2ccc(NC(=O)c3ccccc3F)cc2)cc1C(F)(F)F [Example 998, 2-Fluoro-N-{4-[3-(4-methoxy-3-trifluoromethyl-phenyl)-thioureido]-phenyl}-benzamide] |  |  |  |  |  | 3 µg/mL (≈ 6.47 µM) | 5 µg/mL (≈ 10.8 µM) | > 10 µg/mL |  |
| COc1cc(OC)c(NC(=S)Nc2ccc(NC(=O)c3ccccc3NC(C)=O)cc2)cc1Cl [Example 189, 2-Acetylamino-N-{4-[3-(5-chloro-2,4-dimethoxy-phenyl)-thioureido]-phenyl}-benzamide] |  | 59% |  | > 10 µg/mL | > 10 µg/mL | 2.5 µg/mL (≈ 5.01 µM) |  |  |  |
| CC(NC(=S)Nc1ccc(NC(=O)c2ccccc2F)cc1)c1ccccc1 (stereo not drawn) [Example 589, 2-Fluoro-N-{4-[3-(1-phenyl-ethyl)-thioureido]-phenyl}-benzamide] |  |  |  |  |  | > 10 µg/mL | 0.36 µg/mL (≈ 0.915 µM) | 7 µg/mL (≈ 17.8 µM) |  |
| CC(=O)Nc1ccc(NC(=S)Nc2ccc(NC(=O)c3ccccc3F)cc2)cc1Cl [Example 397, N-{4-[3-(4-Acetylamino-3-chloro-phenyl)-thioureido]-phenyl}-2-fluoro-benzamide] |  | 35% |  | 10 µg/mL (≈ 21.9 µM) | > 10 µg/mL | 5 µg/mL (≈ 10.9 µM) |  |  |  |
| Nc1c(Cl)cccc1NC(=S)Nc1ccc(NC(=O)c2c(F)cccc2F)cc1 [Example 465, N-{4-[3-(2-Amino-3-chloro-phenyl)-thioureido]-phenyl}-2,6-difluoro-benzamide] |  | 31% |  | > 10 µg/mL | > 10 µg/mL | > 10 µg/mL |  |  |  |
| COc1cc(OC)c(NC(=S)Nc2ccc(NC(=O)c3cccc(OC(C)=O)c3)cc2)cc1Cl [Example 253, Acetic acid 3-{4-[3-(5-chloro-2,4-dimethoxy-phenyl)-thioureido]-phenyl-carbamoyl}-phenyl ester] |  | 100% |  | 8 µg/mL (≈ 16 µM) | 6 µg/mL (≈ 12 µM) | 1.2 µg/mL (≈ 2.4 µM) |  |  |  |
| CN1CCC(N(C)c2ccc(NC(=S)Nc3ccc(NC(=O)c4c(F)cccc4F)cc3)cc2Cl)CC1 [Example 340, N-[4-(3-{3-Chloro-4-[methyl-(1-methyl-piperidin-4-yl)-amino]-phenyl}-thioureido)-phenyl]-2,6-difluoro-benzamide] |  | 99% |  | 0.25 µg/mL (≈ 0.459 µM) | 4 µg/mL (≈ 7.35 µM) | 3 µg/mL (≈ 5.51 µM) |  |  |  |
| COc1cc(OC)c(NC(=S)Nc2ccc(NC(=O)c3cccc(N(C)C)c3)cc2)cc1Cl [Example 136, N-{4-[3-(5-Chloro-2,4-dimethoxy-phenyl)-thioureido]-phenyl}-3-dimethylamino-benzamide] |  | 40% |  | 10 µg/mL (≈ 20.6 µM) | > 10 µg/mL | 1 µg/mL (≈ 2.06 µM) |  |  |  |
| COc1ccc(C(=O)Nc2ccc(NC(=S)Nc3cc(Cl)c(OC)c(Cl)c3)cc2)cc1 [Example 880, N-{4-[3-(3,5-Dichloro-4-methoxy-phenyl)-thioureido]-phenyl}-4-methoxy-benzamide] |  | 30% |  | 10 µg/mL (≈ 21 µM) | > 10 µg/mL | > 10 µg/mL |  |  |  |
| O=C(Nc1ccc(NC(=S)Nc2cccc(CO)c2)cc1)c1ccccc1F [Example 476, 2-Fluoro-N-{4-[3-(3-hydroxymethyl-phenyl)-thioureido]-phenyl}-benzamide] |  |  |  |  |  | 10 µg/mL (≈ 25.3 µM) | > 10 µg/mL | > 10 µg/mL | 21% |
| COc1cc(OC)c(NC(=S)Nc2ccc(NC(=O)c3ccccc3F)cc2Cl)cc1Cl [Example 355, N-{3-Chloro-4-[3-(5-chloro-2,4-dimethoxy-phenyl)-thioureido]-phenyl}-2-fluoro-benzamide] |  | 40% |  | > 10 µg/mL | > 10 µg/mL | 0.035 µg/mL (≈ 0.0708 µM) |  |  |  |
| O=C(Nc1ccc(NC(=S)Nc2ccc(C(F)(F)F)c(Cl)c2)cc1)c1ccccc1F [Example 911, N-{4-[3-(3-Chloro-4-trifluoromethyl-phenyl)-thioureido]-phenyl}-2-fluoro-benzamide] |  | 38% |  | 8 µg/mL (≈ 17.1 µM) | > 10 µg/mL | > 10 µg/mL |  |  |  |
| N#Cc1cccc(NC(=S)Nc2ccc(NC(=O)c3ccccc3F)cc2)c1 [Example 461, N-{4-[3-(3-Cyano-phenyl)-thioureido]-phenyl}-2-fluoro-benzamide] |  |  |  |  |  | > 10 µg/mL | > 10 µg/mL | > 10 µg/mL | 33% |
| CN(C)c1cc(CNC(=S)Nc2ccc(NC(=O)c3ccccc3F)cc2)cc(C(F)(F)F)c1 [Example 636, N-{4-[3-(3-Dimethylamino-5-trifluoromethyl-benzyl)-thioureido]-phenyl}-2-fluoro-benzamide] | > 10 µg/mL |  | 5 µg/mL (≈ 10.2 µM) | > 10 µg/mL |  |  |  |  |  |
| CC(NC(=S)Nc1ccc(NC(=O)c2ccccc2F)cc1)c1ccccc1Cl (stereo not drawn) [Example 784, N-(4-{3-[1-(2-Chloro-phenyl)-ethyl]-thioureido}-phenyl)-2-fluoro-benzamide] | > 10 µg/mL |  | 0.7 µg/mL (≈ 1.64 µM) | 1.1 µg/mL (≈ 2.57 µM) |  |  |  |  |  |
| COc1cc(OC)c(NC(=S)Nc2ccc(NC(=O)c3c(F)cccc3F)cc2)cc1Cl [Example 140, N-{4-[3-(5-Chloro-2,4-dimethoxy-phenyl)-thioureido]-phenyl}-2,6-difluoro-benzamide] |  | 65% |  | 4 µg/mL (≈ 8.37 µM) | 10 µg/mL (≈ 20.9 µM) | 0.15 µg/mL (≈ 0.314 µM) |  |  |  |
| CC(NC(=S)Nc1ccc(NC(=O)c2ccccc2F)cc1)c1ccc(C(F)(F)F)cc1 (stereo not drawn) [Example 787, 2-Fluoro-N-(4-{3-[1-(4-trifluoromethyl-phenyl)-ethyl]-thioureido}-phenyl)-benzamide] |  |  |  |  |  | > 10 µg/mL | > 7.5 µg/mL | 1.2 µg/mL (≈ 2.6 µM) |  |
| CC(NC(=S)Nc1ccc(NC(=O)c2ccccc2F)cc1)c1cccc(C#N)c1 (stereo not drawn) [Example 791, N-(4-{3-[1-(3-Cyano-phenyl)-ethyl]-thioureido}-phenyl)-2-fluoro-benzamide] |  |  |  |  |  | > 10 µg/mL | 7 µg/mL (≈ 16.7 µM) | 7.3 µg/mL (≈ 17.4 µM) |  |
